Assay results taken from the kinase profiling compilation of Christmann-Franck et al. (2016).

Assays:
Assay in all cases: KINOMEscan competition binding
Settings in all cases: compound 10.0 µM
PIM3 (human) = PIM3 (human) (UniProt Q86V86)
IRAK4 (human) = IRAK4 (human) (UniProt Q9NWZ3)
STK10 (human) = STK10 (human) (UniProt O94804)
HIPK2 (human) = HIPK2 (human) (UniProt Q9H2X6)
NEK2 (human) = NEK2 (human) (UniProt P51955)
[1] = system: EGFR (human), P00533 [747-751 del / S ins]
ICK (human) = ICK (human) (UniProt Q9UPZ9)
CAMKK2 (human) = CAMKK2 (human) (UniProt Q96RR4)
DDR1 (human) = DDR1 (human) (UniProt Q08345)
STK3 (human) = STK3 (human) (UniProt Q13188)
IKBKE (human) = IKBKE (human) (UniProt Q14164)
IKBKE (human), sequence (Q14164 whole entry, looked up): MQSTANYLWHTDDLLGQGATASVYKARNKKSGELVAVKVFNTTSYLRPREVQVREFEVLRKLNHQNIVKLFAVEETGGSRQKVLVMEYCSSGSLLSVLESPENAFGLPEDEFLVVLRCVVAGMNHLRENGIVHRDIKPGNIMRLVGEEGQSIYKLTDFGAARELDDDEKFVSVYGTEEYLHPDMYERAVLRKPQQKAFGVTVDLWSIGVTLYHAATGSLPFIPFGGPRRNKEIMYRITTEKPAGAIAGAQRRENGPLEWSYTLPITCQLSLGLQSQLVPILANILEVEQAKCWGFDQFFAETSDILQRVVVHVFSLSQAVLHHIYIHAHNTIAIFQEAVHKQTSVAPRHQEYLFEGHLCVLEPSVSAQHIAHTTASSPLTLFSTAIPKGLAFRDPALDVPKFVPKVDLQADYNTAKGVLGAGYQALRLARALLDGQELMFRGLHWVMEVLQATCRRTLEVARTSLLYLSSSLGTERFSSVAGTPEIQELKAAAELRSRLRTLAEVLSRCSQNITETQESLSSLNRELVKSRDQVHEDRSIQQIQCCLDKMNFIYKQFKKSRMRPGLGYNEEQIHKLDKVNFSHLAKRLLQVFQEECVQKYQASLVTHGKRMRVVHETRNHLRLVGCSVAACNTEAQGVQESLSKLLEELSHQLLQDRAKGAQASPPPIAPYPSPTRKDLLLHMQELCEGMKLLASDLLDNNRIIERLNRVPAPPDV

TESK1 (human) = TESK1 (human) (UniProt Q15569)
DMPK (human) = DMPK (human) (UniProt Q09013)
DMPK (human), sequence (Q09013 whole entry, looked up): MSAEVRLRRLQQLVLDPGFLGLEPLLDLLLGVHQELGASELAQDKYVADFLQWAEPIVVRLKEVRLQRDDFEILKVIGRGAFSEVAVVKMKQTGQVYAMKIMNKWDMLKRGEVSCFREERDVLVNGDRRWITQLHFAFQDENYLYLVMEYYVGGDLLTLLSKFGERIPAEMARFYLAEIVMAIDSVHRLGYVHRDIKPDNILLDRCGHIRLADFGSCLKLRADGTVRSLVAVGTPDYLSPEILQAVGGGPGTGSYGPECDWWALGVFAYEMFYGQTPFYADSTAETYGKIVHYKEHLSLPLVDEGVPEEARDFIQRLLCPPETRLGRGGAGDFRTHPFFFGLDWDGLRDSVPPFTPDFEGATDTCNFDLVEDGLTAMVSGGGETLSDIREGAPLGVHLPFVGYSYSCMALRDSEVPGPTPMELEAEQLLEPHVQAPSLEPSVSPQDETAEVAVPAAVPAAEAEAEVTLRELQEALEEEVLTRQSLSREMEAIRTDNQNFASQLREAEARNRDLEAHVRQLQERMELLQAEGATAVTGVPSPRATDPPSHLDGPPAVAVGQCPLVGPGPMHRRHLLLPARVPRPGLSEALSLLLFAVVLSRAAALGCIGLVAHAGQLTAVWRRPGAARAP

EPHB2 (human) = EPHB2 (human) (UniProt P29323)
STK24 (human) = STK24 (human) (UniProt Q9Y6E0)
CDKL2 (human) = CDKL2 (human) (UniProt Q92772)
EGFR (human) = EGFR (human) (UniProt P00533)
[2] = system: KIT (human), P10721 [V559D/V654A]
NUAK1 (human) = NUAK1 (human) (UniProt O60285)
BRSK1 (human) = BRSK1 (human) (UniProt Q8TDC3)
RPS6KA4 KD2 (human) = RPS6KA4 KD2 (human) (UniProt O75676)
RPS6KA4 KD1 (human) = RPS6KA4 KD1 (human) (UniProt O75676)
[3] = target: JAK2 JH1 catalytic (human) (UniProt O60674)
ACVR1 (human) = ACVR1 (human) (UniProt Q04771)
CSNK1E (human) = CSNK1E (human) (UniProt P49674)
HIPK4 (human) = HIPK4 (human) (UniProt Q8NE63)
TXK (human) = TXK (human) (UniProt P42681)
MAPKAPK2 (human) = MAPKAPK2 (human) (UniProt P49137)
SGK110 (human) = SGK110 (human) (UniProt P0C264)
SNRK (human) = SNRK (human) (UniProt Q9NRH2)
SNRK (human), sequence (Q9NRH2 whole entry, looked up): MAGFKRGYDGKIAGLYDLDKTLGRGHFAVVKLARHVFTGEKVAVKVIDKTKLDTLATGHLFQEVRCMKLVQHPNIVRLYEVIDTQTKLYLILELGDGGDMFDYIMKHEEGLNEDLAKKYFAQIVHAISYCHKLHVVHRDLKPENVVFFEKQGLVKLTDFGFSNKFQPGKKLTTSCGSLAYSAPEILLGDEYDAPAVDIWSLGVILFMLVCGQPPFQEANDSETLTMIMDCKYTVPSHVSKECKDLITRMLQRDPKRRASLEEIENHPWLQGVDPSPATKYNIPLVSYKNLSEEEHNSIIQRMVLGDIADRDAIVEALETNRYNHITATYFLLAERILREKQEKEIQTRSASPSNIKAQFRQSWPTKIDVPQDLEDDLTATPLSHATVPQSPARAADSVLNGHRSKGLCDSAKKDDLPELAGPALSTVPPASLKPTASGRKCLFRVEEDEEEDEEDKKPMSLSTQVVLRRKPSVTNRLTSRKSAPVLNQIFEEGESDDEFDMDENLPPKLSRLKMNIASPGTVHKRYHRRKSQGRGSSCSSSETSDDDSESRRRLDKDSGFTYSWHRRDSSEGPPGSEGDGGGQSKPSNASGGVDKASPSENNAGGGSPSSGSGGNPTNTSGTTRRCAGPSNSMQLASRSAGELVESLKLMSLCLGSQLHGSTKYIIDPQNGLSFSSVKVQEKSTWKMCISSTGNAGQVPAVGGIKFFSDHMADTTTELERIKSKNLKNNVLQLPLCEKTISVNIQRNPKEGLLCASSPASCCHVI

MELK (human) = MELK (human) (UniProt Q14680)
MARK1 (human) = MARK1 (human) (UniProt Q9P0L2)
MARK1 (human), sequence (Q9P0L2 whole entry, looked up): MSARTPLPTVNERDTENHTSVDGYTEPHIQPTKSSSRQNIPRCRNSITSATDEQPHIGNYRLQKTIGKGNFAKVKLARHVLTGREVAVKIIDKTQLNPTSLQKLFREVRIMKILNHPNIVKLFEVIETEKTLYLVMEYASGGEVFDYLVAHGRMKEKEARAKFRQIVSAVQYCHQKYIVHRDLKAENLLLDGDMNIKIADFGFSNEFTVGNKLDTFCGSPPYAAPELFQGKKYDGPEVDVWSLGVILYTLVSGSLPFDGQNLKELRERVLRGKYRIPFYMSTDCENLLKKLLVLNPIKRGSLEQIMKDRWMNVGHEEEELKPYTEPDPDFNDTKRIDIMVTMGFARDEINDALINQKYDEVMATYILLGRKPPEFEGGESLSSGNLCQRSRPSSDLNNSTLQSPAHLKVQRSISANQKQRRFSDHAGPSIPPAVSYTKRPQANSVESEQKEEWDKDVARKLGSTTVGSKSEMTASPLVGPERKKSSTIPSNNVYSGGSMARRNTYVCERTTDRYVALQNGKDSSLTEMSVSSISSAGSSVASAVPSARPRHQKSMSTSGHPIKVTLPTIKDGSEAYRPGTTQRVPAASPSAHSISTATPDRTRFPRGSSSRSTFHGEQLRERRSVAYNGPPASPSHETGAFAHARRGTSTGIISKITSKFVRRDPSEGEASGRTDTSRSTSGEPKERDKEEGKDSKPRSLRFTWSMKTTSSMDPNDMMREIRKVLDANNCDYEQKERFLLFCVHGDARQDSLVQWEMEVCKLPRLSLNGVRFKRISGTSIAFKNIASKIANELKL

RIOK3 (human) = RIOK3 (human) (UniProt O14730)
MAP2K7 (human) = MAP2K7 (human) (UniProt O14733)
ERN1 (human) = ERN1 (human) (UniProt O75460)
ERN1 (human), sequence (O75460 whole entry, looked up): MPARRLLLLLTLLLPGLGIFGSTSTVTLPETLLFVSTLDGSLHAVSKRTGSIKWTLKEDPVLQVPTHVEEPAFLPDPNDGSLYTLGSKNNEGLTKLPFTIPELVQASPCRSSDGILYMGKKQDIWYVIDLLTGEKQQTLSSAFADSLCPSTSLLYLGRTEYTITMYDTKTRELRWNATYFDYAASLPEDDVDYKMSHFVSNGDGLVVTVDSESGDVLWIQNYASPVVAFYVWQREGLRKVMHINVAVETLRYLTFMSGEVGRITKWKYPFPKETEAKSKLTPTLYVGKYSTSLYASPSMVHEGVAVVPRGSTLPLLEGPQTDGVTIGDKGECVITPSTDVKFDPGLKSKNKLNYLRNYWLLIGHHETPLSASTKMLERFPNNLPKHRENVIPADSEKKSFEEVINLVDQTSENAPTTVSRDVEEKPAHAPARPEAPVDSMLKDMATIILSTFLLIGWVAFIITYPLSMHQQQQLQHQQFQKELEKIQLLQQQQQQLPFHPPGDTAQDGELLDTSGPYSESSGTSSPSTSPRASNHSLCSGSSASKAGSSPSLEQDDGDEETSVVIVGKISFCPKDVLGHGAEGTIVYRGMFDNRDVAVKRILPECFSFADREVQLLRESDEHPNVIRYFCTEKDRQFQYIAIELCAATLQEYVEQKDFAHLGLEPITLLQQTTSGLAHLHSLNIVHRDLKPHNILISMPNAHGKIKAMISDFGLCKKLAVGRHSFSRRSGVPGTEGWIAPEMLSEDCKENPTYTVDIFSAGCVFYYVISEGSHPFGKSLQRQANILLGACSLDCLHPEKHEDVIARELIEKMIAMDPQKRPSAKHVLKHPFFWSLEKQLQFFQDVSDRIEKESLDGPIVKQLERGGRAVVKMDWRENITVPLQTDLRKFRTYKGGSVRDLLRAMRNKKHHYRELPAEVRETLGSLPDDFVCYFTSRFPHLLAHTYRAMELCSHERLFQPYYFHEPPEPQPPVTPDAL

MYO3A (human) = MYO3A (human) (UniProt Q8NEV4)
NTRK1 (human) = NTRK1 (human) (UniProt P04629)
MAPK11 (human) = MAPK11 (human) (UniProt Q15759)
MYO3B (human) = MYO3B (human) (UniProt Q8WXR4)
STK38 (human) = STK38 (human) (UniProt Q15208)

HIPK2 (human), sequence (Q9H2X6 whole entry, looked up): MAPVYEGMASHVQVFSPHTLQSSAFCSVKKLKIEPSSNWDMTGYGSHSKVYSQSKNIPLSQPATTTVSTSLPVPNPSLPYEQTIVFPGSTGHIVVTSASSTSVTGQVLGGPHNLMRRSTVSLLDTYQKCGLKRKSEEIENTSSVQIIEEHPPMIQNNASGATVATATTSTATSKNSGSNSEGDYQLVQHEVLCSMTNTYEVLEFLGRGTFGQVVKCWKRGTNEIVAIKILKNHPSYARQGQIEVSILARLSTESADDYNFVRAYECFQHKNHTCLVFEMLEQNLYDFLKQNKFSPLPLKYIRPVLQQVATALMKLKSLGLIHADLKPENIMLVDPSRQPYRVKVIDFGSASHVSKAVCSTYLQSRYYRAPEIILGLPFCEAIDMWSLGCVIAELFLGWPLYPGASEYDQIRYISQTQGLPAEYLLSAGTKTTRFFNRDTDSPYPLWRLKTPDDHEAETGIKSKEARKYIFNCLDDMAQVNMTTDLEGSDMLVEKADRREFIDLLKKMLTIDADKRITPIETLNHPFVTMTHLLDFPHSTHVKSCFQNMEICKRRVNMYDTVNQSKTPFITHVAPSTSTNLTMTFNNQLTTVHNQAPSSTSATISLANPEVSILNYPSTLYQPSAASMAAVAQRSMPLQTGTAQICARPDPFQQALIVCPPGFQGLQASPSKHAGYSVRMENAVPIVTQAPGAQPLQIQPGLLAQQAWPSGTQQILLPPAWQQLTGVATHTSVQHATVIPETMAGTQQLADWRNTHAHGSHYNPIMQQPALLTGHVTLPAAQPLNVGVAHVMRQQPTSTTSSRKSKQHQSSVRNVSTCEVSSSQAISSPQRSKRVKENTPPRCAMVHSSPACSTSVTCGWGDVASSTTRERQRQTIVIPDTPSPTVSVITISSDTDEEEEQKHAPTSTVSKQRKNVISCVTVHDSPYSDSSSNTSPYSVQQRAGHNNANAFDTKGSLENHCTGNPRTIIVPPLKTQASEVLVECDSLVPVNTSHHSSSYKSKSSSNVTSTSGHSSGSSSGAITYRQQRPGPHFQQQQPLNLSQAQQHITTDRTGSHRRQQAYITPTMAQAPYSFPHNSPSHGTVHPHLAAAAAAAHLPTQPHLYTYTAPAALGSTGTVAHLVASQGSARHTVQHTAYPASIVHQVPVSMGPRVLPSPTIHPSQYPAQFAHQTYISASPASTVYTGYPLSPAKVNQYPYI

SMILES	kinase still bound, per cent of control (PIM3 (human)) [%]	kinase still bound, per cent of control (IRAK4 (human)) [%]	kinase still bound, per cent of control (STK10 (human)) [%]	kinase still bound, per cent of control (HIPK2 (human)) [%]	kinase still bound, per cent of control (NEK2 (human)) [%]	kinase still bound, per cent of control [1] [%]	kinase still bound, per cent of control (ICK (human)) [%]	kinase still bound, per cent of control (CAMKK2 (human)) [%]	kinase still bound, per cent of control (DDR1 (human)) [%]	kinase still bound, per cent of control (STK3 (human)) [%]	kinase still bound, per cent of control (IKBKE (human)) [%]	kinase still bound, per cent of control (TESK1 (human)) [%]	kinase still bound, per cent of control (DMPK (human)) [%]	kinase still bound, per cent of control (EPHB2 (human)) [%]	kinase still bound, per cent of control (STK24 (human)) [%]	kinase still bound, per cent of control (CDKL2 (human)) [%]	kinase still bound, per cent of control (EGFR (human)) [%]	kinase still bound, per cent of control [2] [%]	kinase still bound, per cent of control (NUAK1 (human)) [%]	kinase still bound, per cent of control (BRSK1 (human)) [%]	also measured
O=C1NC(=O)/C(=C/c2ccc3nccc(-c4ccncc4)c3c2)S1	2.4	47	0.1	0.15	64	84	46	2	62	54	45	84	2.9	86	87	64	58	100	100	73	kinase still bound, per cent of control (RPS6KA4 KD2 (human)): 63%; kinase still bound, per cent of control (RPS6KA4 KD1 (human)): 79%; kinase still bound, per cent of control [3]: 31%; kinase still bound, per cent of control (ACVR1 (human)): 36%; kinase still bound, per cent of control (CSNK1E (human)): 2.6%; kinase still bound, per cent of control (HIPK4 (human)): 3.8%; kinase still bound, per cent of control (TXK (human)): 79%; kinase still bound, per cent of control (MAPKAPK2 (human)): 74%; kinase still bound, per cent of control (SGK110 (human)): 100%; kinase still bound, per cent of control (SNRK (human)): 100%; kinase still bound, per cent of control (MELK (human)): 8.6%; kinase still bound, per cent of control (MARK1 (human)): 74%; kinase still bound, per cent of control (RIOK3 (human)): 1.4%; kinase still bound, per cent of control (MAP2K7 (human)): 38%; kinase still bound, per cent of control (ERN1 (human)): 66%; kinase still bound, per cent of control (MYO3A (human)): 85%; kinase still bound, per cent of control (NTRK1 (human)): 78%; kinase still bound, per cent of control (MAPK11 (human)): 86%; kinase still bound, per cent of control (MYO3B (human)): 97%; kinase still bound, per cent of control (STK38 (human)): 61%
C=CC(=O)Nc1cc(-n2c(=O)ccc3cnc4ccc(-c5cn[nH]c5)cc4c32)ccc1C	42	36	94	48	100	63	67	49	67	100	100	54	59	100	95	17	30	100	11	82	kinase still bound, per cent of control (RPS6KA4 KD2 (human)): 94%; kinase still bound, per cent of control (RPS6KA4 KD1 (human)): 100%; kinase still bound, per cent of control [3]: 16%; kinase still bound, per cent of control (ACVR1 (human)): 29%; kinase still bound, per cent of control (CSNK1E (human)): 88%; kinase still bound, per cent of control (HIPK4 (human)): 51%; kinase still bound, per cent of control (TXK (human)): 7%; kinase still bound, per cent of control (MAPKAPK2 (human)): 100%; kinase still bound, per cent of control (SGK110 (human)): 100%; kinase still bound, per cent of control (SNRK (human)): 100%; kinase still bound, per cent of control (MELK (human)): 43%; kinase still bound, per cent of control (MARK1 (human)): 78%; kinase still bound, per cent of control (RIOK3 (human)): 31%; kinase still bound, per cent of control (MAP2K7 (human)): 14%; kinase still bound, per cent of control (ERN1 (human)): 50%; kinase still bound, per cent of control (MYO3A (human)): 94%; kinase still bound, per cent of control (NTRK1 (human)): 65%; kinase still bound, per cent of control (MAPK11 (human)): 89%; kinase still bound, per cent of control (MYO3B (human)): 100%; kinase still bound, per cent of control (STK38 (human)): 87%
O=C(Nc1cccc(Nc2ncc(Br)c(NCCc3cnc[nH]3)n2)c1)N1CCCC1	69	0	4.6	1.6	6.2	67	10	2	100	0.45	4.6	99	9.1	100	2	4.7	47	15	0	7.6	kinase still bound, per cent of control (RPS6KA4 KD2 (human)): 0.95%; kinase still bound, per cent of control (RPS6KA4 KD1 (human)): 2.1%; kinase still bound, per cent of control [3]: 0%; kinase still bound, per cent of control (ACVR1 (human)): 76%; kinase still bound, per cent of control (CSNK1E (human)): 70%; kinase still bound, per cent of control (HIPK4 (human)): 2%; kinase still bound, per cent of control (TXK (human)): 17%; kinase still bound, per cent of control (MAPKAPK2 (human)): 100%; kinase still bound, per cent of control (SGK110 (human)): 0.95%; kinase still bound, per cent of control (SNRK (human)): 100%; kinase still bound, per cent of control (MELK (human)): 2.2%; kinase still bound, per cent of control (MARK1 (human)): 0.45%; kinase still bound, per cent of control (RIOK3 (human)): 0.5%; kinase still bound, per cent of control (MAP2K7 (human)): 60%; kinase still bound, per cent of control (ERN1 (human)): 34%; kinase still bound, per cent of control (MYO3A (human)): 28%; kinase still bound, per cent of control (NTRK1 (human)): 0.2%; kinase still bound, per cent of control (MAPK11 (human)): 90%; kinase still bound, per cent of control (MYO3B (human)): 93%; kinase still bound, per cent of control (STK38 (human)): 35%
